In the assay the test system is Mycobacterium tuberculosis variant bovis. Put plainly: Antibacterial activity against Mycobacterium bovis BCG ATCC 35743 constitutive expressing GFP assessed as bacterial growth inhibition at 20 uM by CLSI protocol based broth microdilution method. It is filed as functional. The note with it: read-out: GI. A general note: In broth dilution the organism is exposed to a series of concentrations in liquid medium.

This passage reports inhibition of growth results from ChEMBL document CHEMBL5352418, “Molecular networking assisted discovery and combinatorial biosynthesis of new antimicrobial pleuromutilins” (Eur J Med Chem, 2022).

Each structure is given as a SMILES string.

As for `C=C[C@]1(C)C[C@@H](O)[C@@]2(C)C3[C@H](O)CC[C@@]3(CC[C@H]2C)[C@@H](C)[C@@H]1O` (some centres undefined), the inhibition of growth at 20 µM came out at 36%.
On to `C=C[C@]1(C)C[C@@H](OC(=O)CO)[C@@]2(C)C3C(=O)[C@H](O)CC3(CC[C@H]2C)[C@@H](C)[C@@H]1O` (single isomer, unassigned), for which the inhibition of growth at 20 µM came out at 34%.
Regarding `C[C@@H]1CC[C@@]23CCC(=O)C2[C@]1(C)[C@H](OC(=O)CO)C[C@@](C)([C@H](O)CO)[C@@H](O)[C@@H]3C` (some centres undefined), the inhibition of growth at 20 µM was 20%.
Next, `C=C[C@]1(C)C[C@@H](OC(=O)CO)[C@@]2(C)C3C(=O)CC[C@@]3(CC[C@H]2C)[C@@H](C)[C@@H]1O` (some centres undefined): 50%; `C=C[C@]1(C)C[C@@H](OC(=O)CO)[C@@]2(C)C3=CC(=O)C[C@@]3(CC[C@H]2C)[C@@H](C)[C@@H]1O`: 62%; `C=C[C@]1(C)C[C@@H](OC(C)=O)[C@@]2(C)C3[C@H](O)CC[C@@]3(CC[C@H]2C)[C@@H](C)[C@@H]1O` (some centres undefined): 43%.
The value for `C=C[C@]1(C)C[C@@H](O)[C@@]2(C)C3C(=O)CC[C@@]3(CC[C@H]2C)[C@@H](C)[C@@H]1O` (some centres undefined) was 48%.
With `C=C[C@]1(C)C[C@@H](O)[C@@]2(C)C3CCC[C@@]3(CC[C@H]2C)[C@@H](C)C1` (some centres undefined), the inhibition of growth at 20 µM turned out to be 24%.
For the compound `C=C[C@]1(C)C[C@@H](OC(C)=O)[C@@]2(C)C3=CC(=O)C[C@@]3([C@H](O)C[C@H]2C)[C@@H](C)[C@@H]1O`, the inhibition of growth at 20 µM worked out at 34%.
